# Assay results published in ChEMBL document CHEMBL5385895, “Design, synthesis, biological evaluation of urea substituted 1,2,5-oxadiazole-3-carboximidamides as novel indoleamine 2,3-dioxygenase-1 (IDO1) inhibitors” (Eur J Med Chem, 2023).
# Active and inactive are the calls of the source. The calls are words filed in the database; no cut-off is given here.
# Tests used:
# CT26 = assay: cells; details: Mus musculus, CT26, 24 h
# cells = details: Mus musculus, Lung cancer cell line, 24 h
# HCT-116 = assay: cells; details: Homo sapiens, HCT-116, 24 h
# [1] = target: Tryptophan 2,3-dioxygenase (Homo sapiens) (UniProt P48775); assay: Inhibition of human recombinant TDO assessed as reduction in N-formylkynurenine formation using L-tryptophan as substrate at 1 uM preincubated for 30 mins followed by substrate addition and measured after 20 mins by SpectraMax microplate reader analysis; details: time 50.0 min
# HeLa = assay: cells; details: Homo sapiens, 24 h
# [2] = target: T1, Indoleamine 2,3-dioxygenase 2 (Homo sapiens) (UniProt Q6ZQW0); assay: Inhibition of human recombinant IDO2 assessed as reduction in N-formylkynurenine formation using L-tryptophan as substrate at 1 uM preincubated for 30 mins followed by substrate addition and measured after 20 mins by SpectraMax microplate reader analysis; details: time 50.0 min
# T1 sequence (whole entry): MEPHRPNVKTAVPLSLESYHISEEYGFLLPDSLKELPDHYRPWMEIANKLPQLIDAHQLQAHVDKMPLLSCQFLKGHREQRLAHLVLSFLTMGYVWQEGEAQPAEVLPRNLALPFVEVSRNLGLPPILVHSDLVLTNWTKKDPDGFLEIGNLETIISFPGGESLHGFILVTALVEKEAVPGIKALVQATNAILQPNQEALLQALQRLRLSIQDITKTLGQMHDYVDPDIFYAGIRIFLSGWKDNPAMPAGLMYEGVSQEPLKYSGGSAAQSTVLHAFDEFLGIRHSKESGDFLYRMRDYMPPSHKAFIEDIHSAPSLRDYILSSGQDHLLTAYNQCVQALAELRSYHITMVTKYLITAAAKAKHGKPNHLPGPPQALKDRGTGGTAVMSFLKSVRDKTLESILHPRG
# [3] = target: T2, Indoleamine 2,3-dioxygenase 1 (Homo sapiens, UniProt P14902); assay: Inhibition of IDO1 in IFN-gamma-induced human HeLa cells assessed as reduction in N-formylkynurenine formation using L-tryptophan as substrate preincubated for 24 hrs followed by substrate addition and measured after 30 mins by SpectraMax microplate reader analysis; format: cell-based
# [4] = target: T2, Indoleamine 2,3-dioxygenase 1; assay: Inhibition of human recombinant IDO1 assessed as reduction in N-formylkynurenine formation using L-tryptophan as substrate preincubated for 30 mins followed by substrate addition and measured after 20 mins by SpectraMax microplate reader analysis
# [5] = Half life in Sprague-Dawley rat at 5 mg/kg, iv by LC-MS/MS analysis; format: ADME, organism-based; details: in vivo
# [6] = Volume of distribution in Sprague-Dawley rat at 5 mg/kg, iv by LC-MS/MS analysis; format: ADME, organism-based; details: in vivo
# [7] = AUC (0 to infinity) in Sprague-Dawley rat at 5 mg/kg, iv by LC-MS/MS analysis; format: ADME, organism-based; design: dose 5 mg/kg, route iv; details: in vivo
# [8] = Tmax in Sprague-Dawley rat at 5 mg/kg, iv by LC-MS/MS analysis; format: ADME, organism-based; details: in vivo
# [9] = Cmax in Sprague-Dawley rat at 5 mg/kg, iv by LC-MS/MS analysis; format: ADME, organism-based; design: dose 5 mg/kg, route iv; details: in vivo
# [10] = AUC (0 to t) in Sprague-Dawley rat at 5 mg/kg, iv by LC-MS/MS analysis; format: ADME, organism-based; design: dose 5 mg/kg, route iv; details: in vivo
# [11] = Half life in Sprague-Dawley rat at 25 mg/kg, po by LC-MS/MS analysis; format: ADME, organism-based; details: in vivo
# [12] = AUC (0 to t) in Sprague-Dawley rat at 25 mg/kg, po by LC-MS/MS analysis; format: ADME, organism-based; design: dose 25 mg/kg, route po; details: in vivo
# [13] = Apparent permeability of the compound across basolateral to apical side in dog MDCKII cells measured for 2 hrs by LC-MS/MS analysis; format: ADME, cell-based, Canis lupus familiaris, MDCK-II; details: MDCK
# [14] = Apparent permeability of the compound across apical to basolateral side in dog MDCK-II cells measured for 2 hrs by LC-MS/MS analysis; format: ADME, cell-based, Canis lupus familiaris
# [15] = Plasma clearance in Sprague-Dawley rat at 5 mg/kg, iv by LC-MS/MS analysis; format: ADME, organism-based
# [16] = Tmax in Sprague-Dawley rat at 25 mg/kg, po by LC-MS/MS analysis; format: ADME, organism-based; details: in vivo
# [17] = AUC (0 to infinity) in Sprague-Dawley rat at 25 mg/kg, po by LC-MS/MS analysis; format: ADME, organism-based; design: dose 25 mg/kg, route po; details: in vivo
# [18] = Oral bioavailability in Sprague-Dawley rat at 25 mg/kg by LC-MS/MS analysis; format: ADME, organism-based; details: in vivo
# [19] = Anti-tumor efficacy against mouse LLC cells implanted in C57BL/6 mouse assessed as tumor growth inhibition at 200 mg/kg, po bid treated for 21 days relative to control; format: functional; details: Lewis lung carcinoma, 504 h, time 21 day, read-out: TGI
# [20] = Cmax in Sprague-Dawley rat at 25 mg/kg, po by LC-MS/MS analysis; format: ADME, organism-based; design: dose 25 mg/kg, route po; details: in vivo
# [21] = Toxicity in C57BL/6 mouse implanted with mouse LLC cells assessed as change in body weight at 100 to 200 mg/kg, po bid treated for 21 days; format: organism-based, Lewis lung carcinoma; details: in vivo, 504 h, dose 100-200 mg/kg, time 21 day
# [22] = Toxicity in C57BL/6 mouse implanted with mouse LLC cells assessed as pathological changes in kidney at 100 to 200 mg/kg, po bid treated for 21 days by H and E staining assay; format: organism-based, Lewis lung carcinoma; details: in vivo, 504 h, dose 100-200 mg/kg, time 21 day
# [23] = Toxicity in C57BL/6 mouse implanted with mouse LLC cells assessed as pathological changes in spleen at 100 to 200 mg/kg, po bid treated for 21 days by H and E staining assay; format: organism-based, Lewis lung carcinoma; details: in vivo, 504 h, dose 100-200 mg/kg, time 21 day
# [24] = Toxicity in C57BL/6 mouse implanted with mouse LLC cells assessed as pathological changes in heart at 100 to 200 mg/kg, po bid treated for 21 days by H and E staining assay; format: organism-based, Lewis lung carcinoma; details: in vivo, 504 h, dose 100-200 mg/kg, time 21 day
# in vitro = details: dog, MDCK
# [25] = Toxicity in C57BL/6 mouse implanted with mouse LLC cells assessed as liver function by measuring change in AST level at 100 to 200 mg/kg, po bid treated for 21 days […]; format: organism-based, Lewis lung carcinoma; details: in vivo, 504 h, dose 100-200 mg/kg, time 21 day
# [26] = Toxicity in C57BL/6 mouse implanted with mouse LLC cells assessed as liver function by measuring change in total protein level at 100 to 200 mg/kg, po bid treated for 21 days […]; format: organism-based, Lewis lung carcinoma; details: in vivo, 504 h, dose 100-200 mg/kg, time 21 day
# [27] = Toxicity in C57BL/6 mouse implanted with mouse LLC cells assessed as pathological changes in lung at 100 to 200 mg/kg, po bid treated for 21 days by H and E staining assay; format: organism-based, Lewis lung carcinoma; details: in vivo, 504 h, dose 100-200 mg/kg, time 21 day
# [28] = Toxicity in C57BL/6 mouse implanted with mouse LLC cells assessed as kidney function by measuring change in BUN level at 100 to 200 mg/kg, po bid treated for 21 days […]; format: organism-based, Lewis lung carcinoma; details: in vivo, 504 h, dose 100-200 mg/kg, time 21 day
# [29] = Toxicity in C57BL/6 mouse implanted with mouse LLC cells assessed as liver function by measuring change in ALT level at 100 to 200 mg/kg, po bid treated for 21 days […]; format: organism-based, Lewis lung carcinoma; details: in vivo, 504 h, dose 100-200 mg/kg, time 21 day
# [30] = Anti-tumor efficacy against mouse LLC cells implanted in C57BL/6 mouse assessed as tumor growth inhibition at 100 mg/kg, po bid treated for 21 days relative to control; format: functional; details: Lewis lung carcinoma, 504 h, time 21 day, read-out: TGI
# [31] = Toxicity in C57BL/6 mouse implanted with mouse LLC cells assessed as mortality at 100 to 200 mg/kg, po bid treated for 21 days; format: organism-based, Lewis lung carcinoma; details: in vivo, 504 h, dose 100-200 mg/kg, time 21 day
# [32] = Toxicity in C57BL/6 mouse implanted with mouse LLC cells assessed as pathological changes in liver at 100 to 200 mg/kg, po bid treated for 21 days by H and E staining assay; format: organism-based, Lewis lung carcinoma; details: in vivo, 504 h, dose 100-200 mg/kg, time 21 day
# Chain of Tryptophan 2,3-dioxygenase (Homo sapiens) (P48775 whole entry, looked up): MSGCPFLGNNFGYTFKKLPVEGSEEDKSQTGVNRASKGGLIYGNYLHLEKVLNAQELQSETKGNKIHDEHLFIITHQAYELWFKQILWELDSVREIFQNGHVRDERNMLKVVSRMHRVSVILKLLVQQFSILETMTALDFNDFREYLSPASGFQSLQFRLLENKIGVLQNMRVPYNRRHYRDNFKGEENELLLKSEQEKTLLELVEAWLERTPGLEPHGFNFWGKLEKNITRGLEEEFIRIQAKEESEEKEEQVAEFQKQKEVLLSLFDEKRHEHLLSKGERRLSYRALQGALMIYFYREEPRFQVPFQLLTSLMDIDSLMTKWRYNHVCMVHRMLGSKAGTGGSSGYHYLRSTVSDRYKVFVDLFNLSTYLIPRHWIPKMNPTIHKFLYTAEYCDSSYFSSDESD
# T2 sequence (P14902 whole entry): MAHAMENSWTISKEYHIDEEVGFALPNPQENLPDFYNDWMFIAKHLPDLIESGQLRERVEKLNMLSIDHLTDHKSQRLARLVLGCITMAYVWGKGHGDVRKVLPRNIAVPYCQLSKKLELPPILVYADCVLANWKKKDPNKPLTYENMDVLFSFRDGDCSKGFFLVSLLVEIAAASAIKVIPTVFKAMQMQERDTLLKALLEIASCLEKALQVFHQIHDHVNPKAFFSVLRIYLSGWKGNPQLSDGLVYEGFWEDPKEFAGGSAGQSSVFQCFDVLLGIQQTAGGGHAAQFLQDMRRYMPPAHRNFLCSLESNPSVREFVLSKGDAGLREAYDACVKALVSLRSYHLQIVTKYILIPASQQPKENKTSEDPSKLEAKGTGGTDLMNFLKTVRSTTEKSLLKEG
structure (smiles),measurement,setting,value
O=C(NCC1CC1)Nc1nonc1/C(=N/O)Nc1ccc(F)c(Br)c1,IC50,CT26,> 80000 nM
same,IC50,cells,> 50000 nM
same,IC50,HCT-116,55100 nM
same,inhibition,[1],inactive
same,IC50,HeLa,54300 nM
same,inhibition,[2],inactive
same,IC50,[3],30.2 nM
same,IC50,[4],77 nM
NS(=O)(=O)NCCNc1nonc1C(=NO)Nc1ccc(F)c(Br)c1 [EPACADOSTAT],half-life,[5],38.4 min
same,Vd,[6],5.73 L/kg
same,AUC(0-inf),[7],856 ng·h/mL
same,Tmax,[8],1.98 min
same,Cmax,[9],2430 ng/mL
same,AUC(0-t),[10],836 ng·h/mL
same,half-life,[11],133 min
same,AUC(0-t),[12],472 ng·h/mL
same,Papp B→A at 2 h,[13],7.36 ×10⁻⁶ cm/s
same,Papp A→B at 2 h,[14],3.12 ×10⁻⁶ cm/s
same,clearance,[15],102 mL/min/kg
same,Tmax,[16],18.6 min
same,AUC(0-inf),[17],530 ng·h/mL
same,bioavailability,[18],12.4%
CCNC(=O)Nc1nonc1/C(=N/O)Nc1ccc(F)c(Br)c1,inhibition in vivo at 200 mg/kg,[19],53.1%
same,half-life,[5],97.2 min
same,IC50,CT26,34900 nM
same,Vd,[6],4.01 L/kg
same,IC50,cells,> 50000 nM
same,AUC(0-inf),[7],2690 ng·h/mL
same,IC50,HCT-116,19600 nM
same,Cmax,[20],1690 ng/mL
same,Tmax,[8],1.98 min
same,inhibition,[1],inactive
same,Activity,[21],Non-Toxic
same,Cmax,[9],10000 ng/mL
same,Activity,[22],Non-Toxic
same,IC50,HeLa,46100 nM
same,AUC(0-t),[10],2640 ng·h/mL
same,half-life,[11],78.6 min
same,Activity,[23],Non-Toxic
same,Activity,[24],Non-Toxic
same,inhibition,[2],inactive
same,AUC(0-t),[12],2220 ng·h/mL
same,Papp B→A at 2 h,[13],22.6 ×10⁻⁶ cm/s
same,efflux ratio at 2 h,in vitro,0.58
same,Activity,[25],Non-Toxic
same,Activity,[26],Non-Toxic
same,Activity,[27],Non-Toxic
same,Activity,[28],Non-Toxic
same,Papp A→B at 2 h,[14],38.6 ×10⁻⁶ cm/s
same,clearance,[15],32.3 mL/min/kg
same,Tmax,[16],60 min
same,AUC(0-inf),[17],2250 ng·h/mL
same,IC50,[3],17.6 nM
same,Activity,[29],Non-Toxic
same,bioavailability,[18],16.8%
same,inhibition in vivo at 100 mg/kg,[30],41.5%
same,Activity,[31],Non-Toxic
same,Activity,[32],Non-Toxic
same,IC50,[4],67.4 nM
NS(=O)(=O)NCCNc1nonc1/C(=N/O)Nc1ccc(F)c(Br)c1 [EPACADOSTAT],IC50,CT26,64600 nM
same,IC50,cells,> 50000 nM
same,IC50,HCT-116,36300 nM
same,inhibition,[1],inactive
same,IC50,HeLa,59800 nM
same,inhibition,[2],inactive
same,inhibition in vivo at 100 mg/kg,[30],38.8%
CCCCNC(=O)Nc1nonc1/C(=N/O)Nc1ccc(F)c(Br)c1,inhibition,[1],inactive
same,inhibition,[2],inactive
same,IC50,[3],103 nM
same,IC50,[4],159 nM
O=C(Nc1ccccc1)Nc1nonc1/C(=N/O)Nc1ccc(F)c(Br)c1,inhibition,[1],inactive
same,inhibition,[2],inactive
same,IC50,[3],49.5 nM
same,IC50,[4],197 nM
CCCNC(=O)Nc1nonc1/C(=N/O)Nc1ccc(F)c(Br)c1,inhibition,[1],inactive
same,inhibition,[2],inactive
same,IC50,[3],92.3 nM
same,IC50,[4],222 nM
O=C(Nc1ccc(Br)cc1)Nc1nonc1/C(=N/O)Nc1ccc(F)c(Br)c1,inhibition,[1],inactive
same,inhibition,[2],inactive
same,IC50,[3],68.7 nM
same,IC50,[4],224 nM
O=C(Nc1ccc(F)cc1)Nc1nonc1/C(=N/O)Nc1ccc(F)c(Br)c1,inhibition,[1],inactive
same,inhibition,[2],inactive
same,IC50,[3],51.7 nM
same,IC50,[4],208 nM
COc1ccc(NC(=O)Nc2nonc2/C(=N/O)Nc2ccc(F)c(Br)c2)cc1,inhibition,[1],inactive
same,inhibition,[2],inactive
same,IC50,[3],43.7 nM
same,IC50,[4],148 nM
CNC(=O)Nc1nonc1/C(=N/O)Nc1ccc(F)c(Br)c1,inhibition,[1],inactive
same,inhibition,[2],inactive
same,IC50,[3],44.6 nM
same,IC50,[4],118 nM
